Experimental data from PubChem BioAssay (NCI).
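Protocol summary: plate cells (96-well), add compound at 5 concentrations, incubate 48 h, interpolate endpoints linearly. The concentration for full growth arrest is given as TGI.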

Assays:
Assay in all cases: NCI tumour cell line growth inhibition, 48 h
[1] = test system: 786-0 renal
[2] = test system: RXF-631 renal
[3] = test system: M19-MEL melanoma
[4] = test system: LXFL 529 NSCLC
[5] = test system: KM20L2 colon
[6] = test system: HOP-18 NSCLC
[7] = test system: DLD-1 colon
[8] = test system: P388/ADR leukemia
[9] = test system: P388 leukemia

Row | Structure (SMILES) | TGI [1] [µM] | TGI [2] [µM] | TGI [3] [µM] | TGI [4] [µM] | TGI [5] [µM] | TGI [6] [µM] | TGI [7] [µM] | TGI [8] [µM] | TGI [9] [µM]
1 | Cc1cccc2c1Oc1ccccc1C2NC(=O)c1ccc([N+](=O)[O-])cc1 (stereo not given) | > 100 | – | – | – | – | – | – | – | –
2 | CC1=C2C(=O)[C@H]3[C@@H](CC=C4C[C@@H](O)CC[C@@]43C)[C@@H]2CC[C@]12O[C@@H]1C[C@H](C)CN[C@H]1[C@H]2C | > 57.5 | 50 | 85.3 | 33.7 | 93.2 | 31.3 | 97.1 | – | –
3 | COc1nc(SC)nc2c1cnn2C1OC(C(O)CO)C(OC)C1O (stereo not given) | – | – | > 100 | – | > 100 | > 100 | > 100 | > 100 | > 100
4 | CCCCC(C)C1CCC2(C)C=CC(=O)C(C)=C2C1O (stereo not given) | – | – | > 100 | – | > 100 | > 100 | > 100 | > 100 | > 100
5 | CCC1=CC2CN3CCc4c([nH]c5ccccc45)C(C(=O)OC)(C2)C13 (stereo not given) | – | – | 85.8 | – | 19.3 | > 30 | 87.5 | 131 | 93.1
6 | COc1cc(C2C(Cl)C(=O)N2NC(=O)c2ccccc2O)ccc1O (stereo not given) | – | – | > 100 | > 100 | – | > 100 | > 100 | – | –
